Reference: the NIST ThermoML archive (doi:10.1016/j.jct.2019.06.022)

Test: mn = molality of the nth substance listed, in mol/kg
Conditions: 298.15 K, 101.3 kPa, Liquid; for binary diffusion coefficient: Taylor dispersion method; for mass density: Vibrating tube method

O=C([O-])c1ccccc1O.[Na+] [sodium salicylate] + O
Conditions	binary diffusion coefficient [m2/s]	mass density [kg/m3]
m1 = 0.001004	1.06e-09	996.965
m1 = 0.002502	1.05e-09	997.145
m1 = 0.005026	1.04e-09	997.318
m1 = 0.007532	1.02e-09	997.434
m1 = 0.01004	1.02e-09	997.909
m1 = 0.05045	–	999.801
m1 = 0.1014	–	1003.01
